These results are taken from ChEMBL document CHEMBL3399925, “Synthesis and antimycobacterial properties of ring-substituted 6-hydroxynaphthalene-2-carboxanilides” (Bioorg Med Chem, 2015).

Structures are written as SMILES. ≈ marks a conversion by molar mass, not a printed value. Some results are limits rather than exact numbers.

Data set [1] relates to Mycobacterium tuberculosis. Kind of data set: microbe, parasite or virus in culture. The class given is functional. To be noted: H37Ra ATCC 25177, 168 h.
Description: Antimycobacterial activity against Mycobacterium tuberculosis H37Ra ATCC 25177 incubated for 7 days by alamar blue assay
Data set [2] relates to Mycobacterium avium subsp. paratuberculosis. The data set can be described thus: Antimycobacterial activity against Mycobacterium avium subsp. paratuberculosis isolate CIT03 incubated for 11 days by alamar blue assay. To be noted: isolate CIT03, 264 h. It is filed as functional. A general note: The colour change of resazurin is a common sign of viable cells or microbes.
In data set [3] the test system is Mycobacterium avium complex sp. Kind of data set: Antimycobacterial activity against Mycobacterium avium complex isolate CIT19/06 incubated for 5 days by alamar blue assay. It is filed as functional. To be noted: isolate CIT19/06, 120 h.
Another data set relates to THP-1. Kind of data set: Cytotoxicity against human THP1 cells after 24 hrs by WST1 assay. To be noted: THP-1, 24 h. It is filed as cell-based. On the technique in general: Tetrazolium dyes change colour on reduction, which living cells bring about.
Data set [4] is described as follows: Lipophilicity, log K of the compound by HPLC method. The class given is physicochemical.
Data set [5] relates to Mycobacterium tuberculosis. Kind of data set: Antimycobacterial activity against Mycobacterium tuberculosis H37Ra ATCC 25177 assessed as cell viability at 8 ug/ml incubated for 7 days by MTT assay. It is filed as functional.

What is called IC50 is the concentration that inhibits the measured activity by half. A higher IC50 goes with weaker potency in that assay.

Regarding `O=C(Nc1ccccc1)c1ccc2cc(O)ccc2c1`, the MIC90 in data set [1] came to 30 µM (≈ 7.9 µg/mL); in data set [2] it was 30 µM (≈ 7.9 µg/mL); in data set [3], 57 µM (≈ 15 µg/mL). In the data set on THP-1, the 50% inhibitory concentration (IC50) is over 30 µM. Also, in data set [4], the “log K” value was 0.6612.

As for `COc1ccccc1NC(=O)c1ccc2cc(O)ccc2c1`, the MIC90 in data set [1] was found to be 27 µM (≈ 7.92 µg/mL); in data set [2] it was 27 µM (≈ 7.92 µg/mL); in data set [3], 51 µM (≈ 15 µg/mL). In the data set with THP-1, the concentration for half-maximal inhibition (IC50) was over 30 µM. For the same compound, the “log K” value in data set [4] was found to be 0.6039.

Take `COc1cccc(NC(=O)c2ccc3cc(O)ccc3c2)c1`: the MIC90 in data set [1] was found to be 27 µM (≈ 7.92 µg/mL); in data set [2], 27 µM (≈ 7.92 µg/mL); in data set [3], 102 µM (≈ 29.9 µg/mL). In the data set on THP-1, this compound showed a half-inhibitory concentration (IC50) of over 30 µM. Also, in data set [4], the “log K” value stood at 0.4463. In data set [5], the Activity is listed as 62.2%.

On to `COc1ccc(NC(=O)c2ccc3cc(O)ccc3c2)cc1`, for which the MIC90 stood at 27 µM (≈ 7.92 µg/mL) in data set [1], 27 µM (≈ 7.92 µg/mL) in data set [2] and 852 µM (≈ 250 µg/mL) in data set [3]. In addition, the IC50 with THP-1 is over 30 µM. Further, the “log K” value in data set [4] came to 0.3313. Also, the Activity in data set [5] is recorded as 69%.

Take `Cc1ccccc1NC(=O)c1ccc2cc(O)ccc2c1`: the MIC90 in data set [1], in data set [2] and in data set [3] was 29 µM (≈ 8.04 µg/mL) throughout. Further, in the data set with THP-1, the IC50 was over 30 µM. For the same compound, in data set [4], the “log K” value was 0.369.

Take `Cc1cccc(NC(=O)c2ccc3cc(O)ccc3c2)c1`: the values for the MIC90 in data set [1], in data set [2] and in data set [3] were 29 µM (≈ 8.04 µg/mL), 29 µM (≈ 8.04 µg/mL) and 54 µM (≈ 15 µg/mL), respectively. In addition, in the data set with THP-1, the IC50 was over 30 µM. The “log K” value in data set [4] was determined as 0.6086.

For the compound `Cc1ccc(NC(=O)c2ccc3cc(O)ccc3c2)cc1`, the values for the MIC90 in data set [1], in data set [2] and in data set [3] were 29 µM (≈ 8.04 µg/mL), 29 µM (≈ 8.04 µg/mL) and 451 µM (≈ 125 µg/mL), respectively. This compound also returned an IC50 in the data set on THP-1 of over 30 µM. The “log K” value in data set [4] is given as 0.6227.

For the compound `O=C(Nc1ccccc1F)c1ccc2cc(O)ccc2c1`, the MIC90 in data set [1] came to 107 µM (≈ 30.1 µg/mL); in data set [2], 53 µM (≈ 14.9 µg/mL); in data set [3], 107 µM (≈ 30.1 µg/mL). For the same compound, in data set [4], the “log K” value is recorded as 0.4921.

Take `O=C(Nc1cccc(F)c1)c1ccc2cc(O)ccc2c1`: the results for the MIC90 in data set [1], in data set [2] and in data set [3] were 28 µM (≈ 7.88 µg/mL), 53 µM (≈ 14.9 µg/mL) and 53 µM (≈ 14.9 µg/mL), respectively. In addition, in data set [4], the “log K” value was 0.5766.

In the case of `O=C(Nc1ccc(F)cc1)c1ccc2cc(O)ccc2c1`, the MIC90 in data set [1] came out at 28 µM (≈ 7.88 µg/mL); in data set [2], 53 µM (≈ 14.9 µg/mL); in data set [3], 213 µM (≈ 59.9 µg/mL). Also, the “log K” value in data set [4] stood at 0.6726.

Consider `O=C(Nc1ccccc1Cl)c1ccc2cc(O)ccc2c1`, for which the MIC90 in data set [1] stood at 27 µM (≈ 8.04 µg/mL); in data set [2], 840 µM (≈ 250 µg/mL); in data set [3] it was 50 µM (≈ 14.9 µg/mL). Further, the IC50 in the data set on THP-1 was over 30 µM. The “log K” value in data set [4] worked out at 0.6777. Also, the Activity in data set [5] stood at 38%.

Turning to `O=C(Nc1cccc(Cl)c1)c1ccc2cc(O)ccc2c1`, the values for the MIC90 in data set [1], in data set [2] and in data set [3] were 27 µM (≈ 8.04 µg/mL), 840 µM (≈ 250 µg/mL) and 101 µM (≈ 30.1 µg/mL), respectively. The “log K” value in data set [4] was determined as 0.7684. Besides, in data set [5], the Activity amounted to 46.5%.

With `O=C(Nc1ccc(Cl)cc1)c1ccc2cc(O)ccc2c1`, the MIC90 amounted to 27 µM (≈ 8.04 µg/mL) in data set [1], 50 µM (≈ 14.9 µg/mL) in data set [2] and 202 µM (≈ 60.1 µg/mL) in data set [3]. Besides, in the data set with THP-1, the half-inhibitory concentration (IC50) was over 30 µM. Also, in data set [4], the “log K” value turned out to be 0.7947. For the same compound, the Activity in data set [5] amounted to 43.8%.

For `O=C(Nc1ccccc1Br)c1ccc2cc(O)ccc2c1`, the MIC90 in data set [1] was 175 µM (≈ 59.9 µg/mL); in data set [2], 23 µM (≈ 7.87 µg/mL); in data set [3], 88 µM (≈ 30.1 µg/mL). Further, in the data set with THP-1, the IC50 was over 30 µM. In data set [4], the “log K” value came out at 0.7486.

As to `O=C(Nc1cccc(Br)c1)c1ccc2cc(O)ccc2c1`, the results for the MIC90 in data set [1], in data set [2] and in data set [3] were 23 µM (≈ 7.87 µg/mL), 23 µM (≈ 7.87 µg/mL) and 175 µM (≈ 59.9 µg/mL), respectively. In addition, in the data set on THP-1, the IC50 was over 30 µM. Besides, the “log K” value in data set [4] came out at 0.8767. Further, the Activity in data set [5] stood at 41.2%.

As for `O=C(Nc1ccc(Br)cc1)c1ccc2cc(O)ccc2c1`, the MIC90 in data set [1] stood at 23 µM (≈ 7.87 µg/mL); in data set [2], 731 µM (≈ 250 µg/mL); in data set [3] it was 1460 µM (≈ 500 µg/mL). The “log K” value in data set [4] was 0.8884.

In the case of `O=C(Nc1ccccc1C(F)(F)F)c1ccc2cc(O)ccc2c1`, the values for the MIC90 in data set [1], in data set [2] and in data set [3] were 91 µM (≈ 30.1 µg/mL), 377 µM (≈ 125 µg/mL) and 181 µM (≈ 60 µg/mL), respectively. In data set [4], the “log K” value is recorded as 0.5623.

With `O=C(Nc1cccc(C(F)(F)F)c1)c1ccc2cc(O)ccc2c1`, the MIC90 in data set [1] came to 24 µM (≈ 7.95 µg/mL); in data set [2], 24 µM (≈ 7.95 µg/mL); in data set [3], 91 µM (≈ 30.1 µg/mL). The same compound gave a 50% inhibitory concentration (IC50) in the data set on THP-1 of over 30 µM. Also, the “log K” value in data set [4] was 0.9558. The Activity in data set [5] worked out at 42.9%.

As to `O=C(Nc1ccc(C(F)(F)F)cc1)c1ccc2cc(O)ccc2c1`, the MIC90 amounted to 24 µM (≈ 7.95 µg/mL) in data set [1], 91 µM (≈ 30.1 µg/mL) in data set [2] and 91 µM (≈ 30.1 µg/mL) in data set [3]. In the data set on THP-1, this compound showed a 50% inhibitory concentration (IC50) of over 30 µM. For the same compound, in data set [4], the “log K” value came to 1.0133.

Turning to `O=C(Nc1ccccc1[N+](=O)[O-])c1ccc2cc(O)ccc2c1`, the MIC90 in data set [1] was 97 µM (≈ 29.9 µg/mL); in data set [2], 26 µM (≈ 8.02 µg/mL); in data set [3], 195 µM (≈ 60.1 µg/mL). Further, the IC50 with THP-1 was over 30 µM. Moreover, the “log K” value in data set [4] amounted to 0.8553.

`O=C(Nc1cccc([N+](=O)[O-])c1)c1ccc2cc(O)ccc2c1`: the MIC90 in data set [1] stood at 26 µM (≈ 8.02 µg/mL); in data set [2], 26 µM (≈ 8.02 µg/mL); in data set [3], 97 µM (≈ 29.9 µg/mL). Also, the IC50 in the data set with THP-1 is over 30 µM. Further, the “log K” value in data set [4] amounted to 0.8533.

For the compound `O=C(Nc1ccc([N+](=O)[O-])cc1)c1ccc2cc(O)ccc2c1`, the MIC90 in data set [1] stood at 26 µM (≈ 8.02 µg/mL); in data set [2] it was 97 µM (≈ 29.9 µg/mL); in data set [3] it was 49 µM (≈ 15.1 µg/mL). Further, in data set [4], the “log K” value stood at 0.5911.

Take `NNC(=O)c1ccncc1` [ISONIAZID]: the MIC90 in data set [1] was 58 µM (≈ 7.95 µg/mL); in data set [2] it was 1820 µM (≈ 250 µg/mL); in data set [3], 3650 µM (≈ 500 µg/mL).

As for `CO[C@H]1/C=C/O[C@@]2(C)Oc3c(C)c(O)c4c(O)c(c(/C=N/N5CCN(C)CC5)c(O)c4c3C2=O)NC(=O)/C(C)=C\C=C\[C@H](C)[C@H](O)[C@@H](C)[C@@H](O)[C@@H](C)[C@H](OC(C)=O)[C@@H]1C` [RIFAMPIN], the figures for the MIC90 in data set [1], in data set [2] and in data set [3] were 10 µM (≈ 8.23 µg/mL), 109 µM (≈ 89.7 µg/mL) and 10 µM (≈ 8.23 µg/mL), respectively.
